Reference: US4333930A, “Orthoarylideneaminophenethylamines and pharmaceutical compositions” (priority 1980, dated 1982)
Structures can show the parent of a compound that is named as a salt. Where two headings read alike, the source gives them in different places.

How the values were obtained:
[1] = Oral toxicity (mortality) in the mouse, Table 1; type: in vivo; settings: mouse, in vivo, po, Swiss mice, 14 days
Description: (§1) The mortality percentages caused by the products of the present invention administered orally to Swiss mice are shown in Table 1. The animals, free of specific pathological organism were housed in an air conditioned room from 24 to 48 hours before the start of the experiments. They were divided up into lots of 5 males and 5 females. With the animals unfed for 24 hours, the substances were administered intragastrically in a base of 6% gum arabic in a volume equal to 0.1 ml for 10 g of animal weight. The mortality was recorded at 14 days.
(§2) % of mortality as a function of the dose

Swiss mice = assay: Oral toxicity (mortality) in the mouse, Table 1; type: in vivo; settings: 14 days, 20160 min
Description: as §1, §2

phenylbenzoquinone (PBQ) = assay: Analgesic activity using phenylbenzoquinone (PBQ) as noxious agent, Table 2; type: in vivo, male Swiss mouse; settings: for inhibition in vivo at 50 mg/kg / inhibition in vivo at 100 mg/kg / inhibition in vivo at 200 mg/kg: Mus musculus
Description: The analgesic activity was determined with the male Swiss mouse using phenylbenzoquinone (PBQ) (a variation of the method of Siegmund et al, Proc. Soc. Exp. Med., […], 95, 729-31) as the noxious agent. Twenty-eightminutes after having administered the test products in a suspension in a 6% gum base, the PBQ solution was injected. The mice were then observed ca. 5 mn. for the next five minutes.
% of analgesic activity as a function of
the dose expressed in mg/kg

[2] = system: number of escapes the animal made in 5 minutes; assay: Escape test, Table 3; type: in vivo, mouse; settings: oral, mouse, 5 minutes
Text: The products of the invention were always administered orally in 6% gum base.
The notation NS signifies that the difference between the results noted for the product and the results noted for the excipient alone is not significant at the threshold 0.05 according to the Student t Test.

[3] = system: ptosis induced by reserpine; assay: Antagonism of ptosis induced by reserpine, Table 6; type: in vivo; settings: oral, read-out: % of inhibition of ptosis induced by reserpine
Text: (§3) The psychotropic profile of the present invention products has been characterized with the animals in numerous tests some of whose results are shown hereinafter. The products of the invention were always administered orally in 6% gum base.
(§4) Certain tests made it possible to show antidepressive activities. These are tests of antagonism to the effects of reserpine, oxotremorine (according to Everett G. M. et al, Science, 1956, 124, 79 and Levy J. et al, Therapie 1965, 20, 265) and to despair (according to Porsolt P. D. et al, Eur. J. Pharmacol., 1978, 47, 379-91).
% of inhibition of ptosis induced by reserpine
as a function of the dose administered orally

[4] = system: trembling induced by oxotremorine; assay: Antagonism of trembling induced by oxotremorine, Table 7; type: in vivo; settings: oral, read-out: % of inhibition of trembling induced by oxotremorine
Text: as §3, §4
% of inhibition of trembling induced by
oxotremorine as a function of the dose
administered expressed in mg/kg

[5] = system: number of displacements of the animal; assay: Four plates test (anxiolytic activity), Table 5; type: in vivo; settings: oral, mouse
Text: as §3
A certain number of products manifest an anxiolytic activity evidenced in the test with the four plates with the mouse (Table 5).
% of increase in the number of displacements of the
animal as a function of the dose expressed in mg/kg

[6] = read-out: % of analgesic activity, 100 mg/kg, male Swiss mouse, PBQ
[7] = 100 mg/kg, male Swiss mouse, PBQ, read-out: % of analgesic activity
[8] = 200 mg/kg, male Swiss mouse, PBQ, read-out: % of analgesic activity

In the case of `C(=Nc1cc2c(cc1CCN1CCCC1)OCO2)c1cccnc1` [COR 01 186], the mortality at 336 h ([1]; 750 mg/kg) is reported as 0%, the mortality at 336 h ([1]; 1500 mg/kg) is reported as 50% and the “% of mortality” value (Swiss mice; 1000 mg/kg) is reported as 40%.
Compound `Cc1ccc(C=Nc2cc3c(cc2CCN(C)C)OCO3)s1` [COR 01 169] has a mortality at 336 h ([1]; 750 mg/kg) of 50%, a mortality at 336 h ([1]; 1000 mg/kg) of 20% and a mortality at 336 h ([1]; 1500 mg/kg) of 80%. It also gave an inhibition in vivo at 50 mg/kg (phenylbenzoquinone (PBQ); read-out: % of analgesic activity, 50 mg/kg, male Swiss mouse, PBQ) of 7% and an inhibition in vivo at 100 mg/kg (phenylbenzoquinone (PBQ); [6]) of 43%.
Compound `CC(=O)Oc1ccccc1C(=O)O` [Acetylsalicyclic acid, reference compound] has an inhibition in vivo at 100 mg/kg (phenylbenzoquinone (PBQ); [6]) of 55% and an inhibition in vivo at 200 mg/kg (phenylbenzoquinone (PBQ); read-out: % of analgesic activity, 200 mg/kg, male Swiss mouse, PBQ) of 61%.
With “2-(2-N,N-dimethylamino-1-methylethyl)-N-pyridylidene-3 aniline [COR 01 213]” the “% of activity (variation of the number of escapes)” value ([2]; 100 mg/kg) was -20%.
`CN1CCN(CCc2ccccc2N=Cc2cccnc2)CC1` [COR 01 205] gave a mortality at 336 h ([1]; 1000 mg/kg) of 0%, a mortality at 336 h ([1]; 1500 mg/kg) of 10% and a mortality at 336 h ([1]; 2000 mg/kg) of 10%. The change in vivo at 50 mg/kg ([3]; 50 mg/kg) was -31%, the change in vivo at 100 mg/kg [3] was -25% and the change in vivo at 200 mg/kg ([3]; 200 mg/kg) was -31%. For the same compound, the inhibition in vivo at 100 mg/kg (phenylbenzoquinone (PBQ); [7]) was 10%, the inhibition in vivo at 200 mg/kg (phenylbenzoquinone (PBQ); [8]) was 36% and the change in vivo at 200 mg/kg ([2]; 5 min, 200 mg/kg, read-out: % of activity (variation of the number of escapes)) was -34%. For the same compound, the change in vivo at 50 mg/kg ([4]; 50 mg/kg) was -30%, the change in vivo at 100 mg/kg ([4]; 100 mg/kg) was -30% and the change in vivo at 200 mg/kg ([4]; 200 mg/kg) was -40%.
With `CN(C)CCc1cc2c(cc1N=Cc1cccnc1)OCO2` [COR 01 201, 6-dimethylaminoethyl N-(pyridylidene-3)-1,3-benzodioxole-5-ylamine] the mortality at 336 h ([1]; 2000 mg/kg) was 30% and the “% of mortality” value (Swiss mice; 1000 mg/kg) was 10%.
Compound `C(=Cc1ccccc1)C=Nc1cc2c(cc1CCN1CCCC1)OCO2` [COR 01 200] has a mortality at 336 h ([1]; 750 mg/kg) of 0%, a mortality at 336 h ([1]; 1000 mg/kg) of 10% and a mortality at 336 h ([1]; 1500 mg/kg) of 70%. The “% of increase in the number of displacements of the animal” value (from here on “% of increase”) ([5]; 5 mg/kg) was “+112%”, the “% of increase” value ([5]; 10 mg/kg) was “+180%” and the “% of increase” value ([5]; 20 mg/kg) was “+292%”. For the same compound, the “% of increase” value ([5]; 25 mg/kg) was “+142%”, the “% of increase” value ([5]; 50 mg/kg) was “+84%” and the change in vivo at 25 mg/kg ([3]; 25 mg/kg) was -28%. For the same compound, the change in vivo at 100 mg/kg [3] was -24%, the change in vivo at 10 mg/kg ([2]; 5 min, 10 mg/kg, read-out: % of activity (variation of the number of escapes)) was 25% and the change in vivo at 50 mg/kg ([2]; 5 min, 50 mg/kg, read-out: % of activity (variation of the number of escapes)) was 38%.
With `CN(C)CCc1cc2c(cc1N=Cc1cccs1)OCO2` [COR 01 163] the “% of mortality” value (Swiss mice; 150 mg/kg) was 25%, the “% of mortality” value (Swiss mice; 250 mg/kg) was 70% and the “% of mortality” value (Swiss mice; 500 mg/kg) was 100%. The “% of analgesic activity” value (phenylbenzoquinone (PBQ); 50 mg/kg, male Swiss mouse, PBQ) was 17.5%.
With `CN(C)CCc1cc2c(cc1N=Cc1cccs1)OCO2` [COR 01 179] the “% of mortality” value (Swiss mice; 250 mg/kg) was 10% and the “% of mortality” value (Swiss mice; 500 mg/kg) was 90%.
Compound `CN(C)CCc1cc2c(cc1N=Cc1ccccc1C(=O)O)OCO2` [COR 01 142, N-6-(2-N,N-dimethylaminoethyl)-1,3-benzodioxol-5-yl-2-formimidoylbenzoic acid, internal salt] has a mortality at 336 h ([1]; 1000 mg/kg) of 0%, a mortality at 336 h ([1]; 2000 mg/kg) of 50% and an inhibition in vivo at 50 mg/kg (phenylbenzoquinone (PBQ); 50 mg/kg, male Swiss mouse, PBQ, read-out: % of analgesic activity) of 22%. It also gave an inhibition in vivo at 100 mg/kg (phenylbenzoquinone (PBQ); [7]) of 20% and an inhibition in vivo at 200 mg/kg (phenylbenzoquinone (PBQ); [8]) of 10%.
